Measured values as given in patent US20180340012A1, “METHODS AND CO[…] TO IMPROVING PROPERTIES OF PHARMACOLOGICAL AGENTS TARGETING NERVOUS SYSTEM” (University of Utah Research Foundation, priority 2006, published 2018).

Assays:
Type in all cases: in vivo
[1] = system: formalin-induced paw licking; experiment: Mouse formalin test
Method: An injection of 0.5% formalin is made into the planter region of a mouse right hind paw. This elicits a distinct biphasic behavioral profile characterized by the mouse licking the affected paw. Immediately following the injection the mouse licks the paw for about 10 minutes. This is phase 1 (acute) and is followed by a brief latent period where there is little behavioral activity. A more prolonged period of about 20 to 30 minutes of paw licking ensues which constitutes phase 2 (inflammatory).
Prior to the administration of the active peptide, drug or vehicle each mouse undergoes a 15-minute conditioning period in one of several 6″ tall plexiglass observation tubes (4″ diameter) that are placed in front of a mirror. […] One hour after treatment, formalin was injected sub-dermally (20 μl; 27 gauge needle) into the plantar surface of the right hind foot. The bevel of the needle is placed facing down toward the skin surface. Following the injection of the formalin each animal is observed for first 2 minutes of each 5 minute epoch for a total of 45 minutes. The cumulative length of licking for each 2 minute time period was measured. An animal receiving the requisite volume of vehicle was alternated with each mouse given GAL-BBB2, Gal 1-16, or gabapentin. Animals were euthanized following the conclusion of the experiment.
Area under the curve (AUC) determination was made using the GraphPad Prism Version 3.03. Total AUC is calculated for both the test and control groups for both the acute and inflammatory phases. The AUC for individual animals for each phase is also calculated and converted to percentage of total AUC of control. The average percentages and SEM for both the drug treated and control were calculated and tested for significant difference.

[2] = system: secondarily generalized partial seizures; experiment: Hippocampal kindled rat model of partial epilepsy; conditions: i.p.; decreases from 5
sound-induced seizures = experiment: Frings audiogenic seizure-susceptible mouse model
Method: The two modified galanin analogs (GAL-BBB1 and GAL-BBB2) were administered i.p. to a group of Frings audiogenic seizure susceptible mice in a dose of 4 mg/kg. At various times after administration (i.e., 15, 30, 60, 120, and 240 min) each mouse was placed into a cylindrical test chamber fitted with an audio transducer and challenged with a high-intensity sound stimulus (110 dB, 11 KHz for 20 sec). Animals not displaying tonic hind-limb extension were considered protected. […] In a subsequent study, anticonvulsant efficacy was quantitated at the time to peak effect (i.e., 1 h) in a dose-response study.
The ability of individual modified analogs to prevent seizures induced by sound in the AGS-susceptible Frings mouse model can be assessed at the time of peak effect (White et al., 1992). For this test, individual mice are placed into a plexiglass cylinder (diameter, 15 cm; height, 18 cm) fitted with an audio transducer (Model AS-ZC; FET Research and Development, Salt Lake City, Utah), and exposed to a sound stimulus of 110 decibels (11 KHz) delivered for 20 seconds. Sound-induced seizures are characterized by wild running followed by loss of righting reflex with forelimb and hindlimb tonic extension. Mice not displaying hindlimb tonic extension are considered protected.
At various times after administration (i.e., 15, 30, 60, 120, and 240 min) each mouse was placed into a cylindrical test chamber fitted with an audio transducer and challenged with a high-intensity sound stimulus (110 dB, 11 KHz for 20 sec).

Sar-Trp-Thr-Leu-Asn-Ser-Ala-Gly-Tyr-Leu-Leu-Gly-Pro-Lys-Lys-(Lys-palm)-Lys-NH2 [NAX 5055]
effect of 5 mg/kg compared with 10 mg/kg gabapentin ([1]; 5 mg/kg i.p.): equivalent | paw licking, acute and inflammatory phase ([1]; 0.52-5 mg/kg i.p., 60 min before formalin): dose-dependent reduction | Active at (flat phase II) ([1]; mouse formalin assay of inflammatory pain): 5 mg/kg (“flat phase II”) | seizure score [2]: 3 | blocking sound-induced seizures (sound-induced seizures; 4 mg/kg i.p., one hour after administration): effective | duration of anticonvulsant effect (sound-induced seizures; 4 mg/kg, i.p.): between two and four hours | onset of anticonvulsant effect (sound-induced seizures; 4 mg/kg, i.p.): ≤ 30 min | anticonvulsant ED50 (approximate) (sound-induced seizures; given i.p., refers to Example 2): ~3 mg/kg | median effective dose ED50 (95% confidence intervals) (sound-induced seizures; i.p., at time to peak effect 1 h, Probit analysis): 3.2 (2.3−6.1) mg/kg
